Measurements: patent publication US20260041653A1, “AN HDAC INHIBITOR FOR TREATING CANCER WITH A MODIFIED STK11 ACTIVITY OR EXPRESSION” (Tango Therapeutics, Inc., priority 2022, published 2026)
Entries after “also recorded” stand apart in the source; their conditions may differ.

Tests used:
HDAC1 = molecular target: T1, HDAC1 (Homo sapiens, UniProt Q13547); experiment: Cellular NanoBRET target engagement assay, HDAC1; assay type: cell-based; details: in intact cells
T1 construct: expressed in transfected cells

HDAC10 = molecular target: T2, HDAC10 (Homo sapiens, UniProt Q969S8); experiment: Cellular NanoBRET assay, HDAC10; assay type: cell-based
T2 construct: expressed in transfected cells

CoREST complex = experiment: Fluorescence-based deacetylase assay of cell-derived HDAC complex, CoREST; assay type: biochemical
Source text: The HDAC inhibition was profiled in a fluorescence-based deacetylase assay.

[1] = system: CT26_STK11KO tumor (KRAS G12D); experiment: Anti-tumor efficacy in CT26_STK11KO colon carcinoma model; assay type: in vivo, mouse; details: for ORR % / TGI %: CT26 STK11KO
Procedure: In this example, the anti-tumor activity of a combination treatment of anti-PD1 antibody with Compound I was determined in vivo in STK11-deleted syngeneic mouse models.
Briefly, mice were inoculated with STK11-deleted CT26 (murine colorectal carcinoma cell line) tumor model in a manner similar to that described in Example 1. The tumor model was resistant to murine anti-PD1 antibody by knockout of the STK11. Mice were treated with Compound I orally once daily and with anti-PD1, anti-IgG2a control, or anti-PD1 control twice per week as indicated. Tumor volume and survival was monitored over the course of treatment and plotted by individual animal for tumor volume (FIG. 7A) and by group for survival (FIG. 7B).
(§1) An in vivo anti-tumor efficacy of combination treatment of Anti-PD1 and Compound I in a CT26 mouse model was evaluated. CT26 is a colon carcinoma cell line with an endogenous KRAS G12D mutation. The experiment was performed in the parental/wild type line and in a line engineered with an STK11 knock-out (CT26_STK11KO) resulting in an anti-PD1 resistant model with lower CD8+ T cell infiltration.
In each of the experiments, the animals (8/group) were divided into four groups. Group I was treated with a control antibody Anti-IgG2, group 2 was treated with Compound I 75 mg/kg, group 3 was treated with anti-PD1 antibody, and group 4 was treated with Compound I 75 mg/kg and anti-PD1 antibody. Tumor volume and survival was monitored over the course of treatment. For the CT26_STK11KO model, the tumor volume was plotted by individual animal (FIG. 15A) and by treatment group (FIG. 15B). Survival was plotted by treatment group (FIG. 15C).
as §1, with “anti-CTLA4” for “Anti-PD1”, “anti-CTLA4-resistant model.” for “anti-PD1 resistant model with lower CD8+ T cell infiltration.”
An in vivo anti-tumor efficacy of double combination treatment of Anti-CTLA4 and Compound I in a CT26 syngeneic model was performed. CT26 is a colon carcinoma cell line. The experiment was also performed with an STK11-null CT26 model, this model is CTLA4 resistant.
There were 8 mice per group. Group I was treated with a control antibody Anti-IgG2, group 2 was treated with Compound I 75 mg/kg, group 3 was treated with anti-CTLA4 antibody, and group 4 was treated with Compound I 75 mg/kg and anti-CTLA4 antibody. Tumor volume was monitored over the course of treatment. The tumor volume was plotted by treatment group (FIG. 16A), and the individual animals were plotted for group 1 and group 4 (FIG. 16B), for the parental model. The tumor volume was plotted by treatment group (FIG. 16C), and the individual animals were plotted for group 1 and group 4 (FIG. 16D), for the STK11 knockout model.

CYP1A2 = CYP1A2 (Homo sapiens, UniProt P05177); experiment: Metabolism by recombinant human CYP1A2; assay type: in vitro ADME; details: read-out: terminal half life (T1/2), rh CYP1A2
Procedure: Drug metabolizing enzymes involved in the biotransformation of Compound I were investigated using human liver microsomes (HLM) and recombinant enzymes. Compound I was stable in HLMs (>93% remaining after 240 minutes of incubation with HLM protein concentration at 0.6 mg/ml). CYP selective inhibitor experiments were not performed due to lack of appreciable Compound I turnover.

acetyl-histone H3 = experiment: PK/PD study, acetyl-histone H3 in tumor by Western blot; assay type: in vivo, C57BL/6 mice
Procedure: In a separate PK/PD study, MC38 tumor-bearing female C57BL/6 mice (12/group) were assigned to treatment groups with similar mean tumor volumes of approximately 430 mm^3 and treated with vehicle (5% N,N-dimethylacetamide [DMA]+30% polyethylene glycol [PEG] 400+65% of 30% 2-hydroxypropyl-beta-cyclodextrin [HP-β-CD] in water) or Compound I at 30, 100, and 300 mg/kg once daily (QD) for 2 days. Plasma samples were collected at 1, 2, 8 and 24 hours after last dose and analyzed for Compound I concentrations. Peripheral blood mononuclear cells (PBMC) and tumor samples were harvested at 2, 8, and 24 hours after last dose. The PBMC samples were processed for determination of mean florescent level of acetyl-histone H2B by flow cytometry. Tumor samples were processed for determination of protein levels of acetyl-histone H3 by Western blot.

[2] = Compound I 75 mg/kg QD alone, second of two values (two experiments, Examples 14 and 15)
[3] = Compound I 75 mg/kg QD, antibodies 10 mg/kg, for Compound I alone the first of two printed values

Chain of CYP1A2 (P05177 whole entry): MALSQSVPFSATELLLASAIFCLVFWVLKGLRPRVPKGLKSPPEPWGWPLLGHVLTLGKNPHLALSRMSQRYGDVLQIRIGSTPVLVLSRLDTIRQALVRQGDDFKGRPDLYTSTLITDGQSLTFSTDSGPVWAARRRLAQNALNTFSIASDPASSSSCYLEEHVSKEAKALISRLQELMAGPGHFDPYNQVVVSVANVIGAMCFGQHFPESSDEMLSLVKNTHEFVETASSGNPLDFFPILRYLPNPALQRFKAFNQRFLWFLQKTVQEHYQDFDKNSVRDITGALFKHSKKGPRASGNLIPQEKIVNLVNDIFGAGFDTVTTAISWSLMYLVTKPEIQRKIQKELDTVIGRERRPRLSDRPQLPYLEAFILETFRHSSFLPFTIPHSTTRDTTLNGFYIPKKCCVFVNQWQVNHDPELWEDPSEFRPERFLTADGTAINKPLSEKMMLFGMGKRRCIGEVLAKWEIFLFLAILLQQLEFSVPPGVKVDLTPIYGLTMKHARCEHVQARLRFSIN
T2 sequence (Q969S8 whole entry): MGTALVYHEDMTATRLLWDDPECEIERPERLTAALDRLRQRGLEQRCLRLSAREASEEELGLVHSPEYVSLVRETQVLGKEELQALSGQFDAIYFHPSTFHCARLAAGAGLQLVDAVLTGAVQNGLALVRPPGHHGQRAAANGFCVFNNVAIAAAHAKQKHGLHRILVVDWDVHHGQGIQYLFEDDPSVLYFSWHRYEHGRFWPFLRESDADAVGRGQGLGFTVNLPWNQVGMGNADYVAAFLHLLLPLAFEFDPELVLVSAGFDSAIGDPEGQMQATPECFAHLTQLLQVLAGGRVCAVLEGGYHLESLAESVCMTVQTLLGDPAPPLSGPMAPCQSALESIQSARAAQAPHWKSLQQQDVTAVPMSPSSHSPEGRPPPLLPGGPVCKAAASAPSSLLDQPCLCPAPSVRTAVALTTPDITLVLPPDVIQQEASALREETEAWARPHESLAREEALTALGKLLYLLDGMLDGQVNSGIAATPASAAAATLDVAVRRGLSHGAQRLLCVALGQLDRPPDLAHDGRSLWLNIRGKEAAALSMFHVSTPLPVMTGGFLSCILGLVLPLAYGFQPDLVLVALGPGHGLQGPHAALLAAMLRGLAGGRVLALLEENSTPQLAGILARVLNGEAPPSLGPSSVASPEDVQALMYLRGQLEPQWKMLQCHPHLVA
T1 sequence (Q13547 whole entry): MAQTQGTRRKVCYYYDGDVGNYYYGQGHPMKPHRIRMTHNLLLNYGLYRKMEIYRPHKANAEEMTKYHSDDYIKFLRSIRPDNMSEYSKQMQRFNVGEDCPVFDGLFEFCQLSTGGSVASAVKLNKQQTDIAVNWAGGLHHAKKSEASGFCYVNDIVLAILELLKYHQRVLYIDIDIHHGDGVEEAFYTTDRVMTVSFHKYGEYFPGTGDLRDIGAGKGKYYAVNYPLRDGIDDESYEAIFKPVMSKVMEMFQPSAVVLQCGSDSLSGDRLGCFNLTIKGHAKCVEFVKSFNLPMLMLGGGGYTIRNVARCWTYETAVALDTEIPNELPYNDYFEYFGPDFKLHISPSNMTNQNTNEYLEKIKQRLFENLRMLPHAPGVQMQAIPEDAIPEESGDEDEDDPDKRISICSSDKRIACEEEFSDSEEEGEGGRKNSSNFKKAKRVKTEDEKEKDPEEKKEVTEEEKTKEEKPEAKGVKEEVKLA

How did the “selectivity for HDAC1 compared to HDAC3” value (HDAC1) turn out when `C[S@@](=N)(=O)c1ccc(C(=O)Nc2cc(-c3ccc(F)cc3)ccc2N)cc1` [Compound I, (R)—N-(4-amino-4′-fluoro-[1,1′-biphenyl]-3-yl)-4-(S-methylsulfonimidoyl)benzamide] was run?
The value was greater than 10 fold.

And the IC50 (HDAC10)?
The IC50 was greater than 30 µM.

What about the “selectivity for CoREST deacetylase compared to NCOR, NuRD, and Sin3” value (CoREST complex) of the same molecule?
Its value is “significant selectivity; also recorded: selective for the CoREST complex”.

And the ORR % [1, 2]?
Its ORR % is 38%.

What about the TGI % [1, 2] of the same molecule?
The TGI % was 70%.

And the ORR % [1, 3]?
The ORR % was 0%.

And the TGI % [1, 3]?
The TGI % was 39%.

What about the “resistance to immune checkpoint blockade driven by loss of STK11” value ([1]; tumor models for colon adenocarcinoma and colorectal carcinoma (Examples 1 and 5)) of the same molecule?
Its value is “reverses resistance to immune checkpoint blockade”.

And the half-life (CYP1A2)?
Its half-life is greater than 60 min.

And the “maximal induction of histone acetylation in tumor” value (acetyl-histone H3; 300 mg/kg QD, 2 days, 24 hours after last dose, vs vehicle control)?
Its value is 3.7 fold.

What about the “tumor acetyl-histone protein levels” value (acetyl-histone H3; 30, 100, 300 mg/kg QD, starting 2 hours after last dose) of the same molecule?
Its value is “dose-dependent increase”.
